In patent US9278963B2, “Pyrimidine hydroxy amide compounds as histone deacetylase inhibitors” (Acetylon Pharmaceuticals, Inc., priority 2013, dated 2016):

Assays:
[1] = system: human erythroid, myeloid and megakaryocyte hematopoietic progenitors; test: Hematopoietic progenitor proliferation (colony) assay; format: cell-based; conditions: compared with MS-275; 14-16 days in culture
Procedure: This study evaluated the potential effect of test compounds on human erythroid, myeloid and megakaryocyte hematopoietic progenitor proliferation in media formulations containing various cytokines. Normal human bone marrow light density cells derived from a normal bone marrow donor (Lonza, Md.) were used for these studies. Clonogenic progenitors of human erythroid (CFU-E, BFU-E) and granulocyte-monocyte (CFU-GM) lineages were assessed in a semi-solid methylcellulose-based media formulation containing rhIL-3 (10 ng/mL), rhGM-SCF (10 ng/mL), rhSCF (50 ng/mL) and Epo (3 U/mL). Clonogenic progenitors of human megakaryocyte lineage were assessed in a semi-solid collagen based matrix containing rhIL-3 (10 ng/mL), rhIL-6 (10 ng/mL) and rhTpo (50 ng/mL).
Compounds were added to the medium to give the final desired concentrations. […] Following 14-16 days in culture, myeloid and erythroid colonies were assessed microscopically and scored by trained personnel. […] The colonies were assessed and scored by trained personnel and divided into the following categories based on size; CFU-Mk (3-20), CFU-Mk (21-49) and CFU-Mk (≧50).
The mean±1 standard deviation of three replicate cultures was calculated for progenitors in both media formulations. […] A sigmoidal curve was then fit to the graph and from this curve the inhibitory concentration (μM) was then calculated using the Boltzman equation […]

fetal globin (HbG) = test: Fetal globin (HbG) induction in cultured CD34+ bone marrow cells; format: cell-based, human; conditions: 1 μM, treatment for 4 days
[2] = system: BE(2)-C neuroblastoma cells; test: Neuroblastoma maturation gene expression, BE(2)-C; format: cell-based
Procedure: The following is a quick summary of the HDAC neuroblastoma maturation experiments. Adherent cells were plated into 12- or 24-well plates at 10^6 cells/well and allowed to adhere for 2-4 hours. Compounds were dispensed in DMSO at the indicated concentrations using an automated liquid handling system (Tecan D300) and incubated for the indicated times at 37° C. with 5% CO2. Cells were harvested and RNA extracted using the Qiagen RNeasy Mini Kit according to manufacture protocols. The RNA was quantified and relative expression levels were assessed using the Applied Biosystems TaqMan RNA-to-Ct Kit according to manufacture protocols using the indicated TaqMan probes.
The protocol for the maturation experiments was as follows. The day before the experiment, the cells were fed in the flask by doubling the media. The cells were then harvested by adding non-enzymatic cell dissociation media and incubating at 37° C. for 15 minutes. The cells were transferred to a 50 ml tube and pipet to create a single-cell suspension. The cells were washed with PBS buffer. The cells were then resuspended in complete media at 5×10^5 cells per ml. Next, 2 ml of cells were transferred to 24- or 12-well plates. The treatment compounds were then dispensed into each well using the D300 liquid handler. The cells were then incubated for the indicated time at 37° C. The cells were harvested by scraping the cells and transferring to a 2 ml tube. The cells were spun to form a pellet. Next, RNA was extracted using the Qiagen RNeasy Mini kit according to manufacture protocols. The RNA concentration was recorded. The relative RNA levels were assessed using the Applied Biosystems TaqMan RNA-to-Ct kit according to manufacture protocols using the indicated Taqman probes.

HDAC2 = HDAC2 (Homo sapiens (Human), UniProt Q92769); test: HDAC2glo assay; format: cell-based
[3] = system: SH-SY5Y neuroblastoma cells; test: Neuroblastoma cell cycle by flow cytometry, SH-SY5Y; format: cell-based; conditions: 72 hours, 0.5, 2 and 5 μM (ATRA 1 μM)
Procedure: The following is a quick summary of the neuroblastoma cell cycle experiments. Adherent cells were plated into 12-well plates at 10^6 cells/well and allowed to adhere for 2-4 hours. Compounds were dispensed in DMSO at the indicated concentrations using an automated liquid handling system (Tecan D300) and incubated for the indicated times at 37° C. with 5% CO2. Cells were harvested with enzyme-free cell disassociation solution and washed with buffered saline. Cells were fixed overnight with 100% ethanol. Cell cycle was assessed by flow cytometry using the Molecular Probes FxCycle PI/RNase Staining Solution kit according to manufacture protocols.
The protocol for the cell cycle experiments was as follows. The day before the experiment, the cells were fed in the flask by doubling the media. Then, the cells were harvested by adding non-enzymatic cell dissociation media and incubating at 37° C. for 15 minutes. Next, the cells were transferred to a 50 ml tube and pipet to create a single-cell suspension. The cells were then washed with PBS buffer. Then, the cells were resuspended in complete media at 5×10^5 cells per ml. Next, 2 ml of cells were transferred to 12-well plates. Then, the treatment compounds were dispensed into each well using the D300 liquid handler. The cells were incubated for the indicated time at 37° C. Then, the cells were harvested by adding 500 μl enzyme free cell dissociation solution and incubating at 37° C. for 15 minutes. Next, the cells were spun into a pellet and then washed with PBS. Then, 500 μl 100% EtOH was added and incubated at 4° C. overnight. Then, the cells were washed 3× with PBS. The cells were then resuspended in […] FxCycle PI/RNase solution, and incubated for 2-4 hours at room temperature. Finally, the cells were assayed by flow cytometry.
SH-SY5Y neuroblastoma cells were treated with varying concentrations of either Compound X or Y, and/or ATRA (all trans retinoic acid). […] In addition, the fold change of p21 was also calculated. […] The HDACi/ATRA combination effects were modest, with little difference compared to single agents.

Chain of HDAC2 (Q92769 whole entry): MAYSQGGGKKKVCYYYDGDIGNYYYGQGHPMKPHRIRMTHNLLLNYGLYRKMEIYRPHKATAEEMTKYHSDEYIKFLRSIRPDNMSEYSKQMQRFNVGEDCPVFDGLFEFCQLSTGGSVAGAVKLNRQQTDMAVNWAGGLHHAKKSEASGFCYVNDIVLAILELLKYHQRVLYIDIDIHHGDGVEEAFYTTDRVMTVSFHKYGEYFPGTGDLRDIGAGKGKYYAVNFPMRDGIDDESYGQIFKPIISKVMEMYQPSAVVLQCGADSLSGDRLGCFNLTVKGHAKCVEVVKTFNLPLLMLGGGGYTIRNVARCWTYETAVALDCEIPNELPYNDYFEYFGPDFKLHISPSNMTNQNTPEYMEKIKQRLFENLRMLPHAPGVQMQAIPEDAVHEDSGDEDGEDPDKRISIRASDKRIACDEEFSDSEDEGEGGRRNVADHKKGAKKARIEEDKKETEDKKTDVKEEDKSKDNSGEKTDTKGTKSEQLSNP

concentration at which maximal HDAC2 inhibition was reached (HDAC2): 3 to 4 µM
Compound: O=C(NO)c1cnc(NC2(c3ccccc3)CCN(C(=O)Nc3ccccc3)CC2)nc1 [Compound 001, N-hydroxy-2-((4-phenyl-1-(phenylcarbamoyl)piperidin-4-yl)amino)pyrimidine-5-carboxamide]
cytotoxicity against erythroid, myeloid and megakaryocytes [1]: significantly less cytotoxicity
increase in the percentage of HbG relative to other beta-like globin transcripts (fetal globin (HbG)): 2 fold
fold change of genes associated with maturation ([2]; 2 days, 3 μM): induces gene expression changes that are consistent with maturation
fold change of genes associated with maturation ([2]; 48 hours, 0.5, 2 and 4 μM): induces gene expression changes consistent with maturation at 4 μM, but not at 2 μM or less
percent of the cell population in G2, S, G1 and Sub G1 phase [3]: induced a reduction in G1/G2 and increase in sub-G1
